# Where a name gives a salt, the structure may show the parent alone. Marks after values point to notes of the source that are not given here.
# B1: ^131I-B72.3: iodine-131 labeled anti-TAG72 monoclonal antibody B72.3 (radioimmunoconjugate) (conjugate, chains of the INN, looked up)
# VH: QVQLQQSDAELVKPGASVKISCKASGYTFTDHAIHWAKQKPEQGLEWIGYISPGNDDIKYNEKFKGKATLTADKSSSTAYMQLNSLTSEDSAVYFCKRSYYGHWGQGTTLTVSS
# VL: DIQMTQSPASLSVSVGETVTITCRASENIYSNLAWYQQKQGKSPQLLVYAATNLADGVPSRFSGSGSGTQYSLKINSLQSEDFGSYYCQHFWGTPYTFGGGTRLEIK
# modifications: iodine-131 label
# Experiments:
# LS174T cells = assay: Effect of COMPOUND I mesylate on radiosensitivity of in vitro grown cells; type: cell-based, human
# LS174T SQ xenografts = assay: Effect of COMPOUND I on radiosensitivity of adenocarcinoma xenografts (external radiation); conditions: P=0.127, Mantel-Cox logrank analysis
# [1] = tested on: LS174T human colorectal adenocarcinoma xenografts; assay: Radioimmunotherapy of SQ LS174T xenografts in athymic mice, with or without COMPOUND I mesylate; conditions: for Relative tumor growth: relative to no treatment = 1
Molecule,"effect on radiosensitivity, combined with radiation (LS174T cells; monolayer, irradiation 1.95 Gy/min, total doses 1 Gy and 6 Gy)",effect on cell cycle (LS174T cells; pharmacologically relevant concentrations),difference between radiation plus COMPOUND I mesylate and radiation only (LS174T SQ xenografts),"Tq (days) ([1]; quadrupling time calculated on day 10 (*), COMPOUND I mesylate PO BID 2 mg/mouse/day)",Relative tumor growth [1],effect of combined treatment with COMPOUND I mesylate in vitro (LS174T cells; ^131I-labeled antibody plus COMPOUND I mesylate),tumor response ([1]; escalating doses),Tq (days) ([1]; quadrupling time calculated on day 28 (**) after 0.25 mCi ^131I-B72.3 IV),tumor response ([1]; single dose of 0.5 mCi or similar doses)
Cc1ccc(NC(=O)c2ccc(CN3CCN(C)CC3)cc2)cc1Nc1nccc(-c2cccnc2)n1 [COMPOUND I mesylate],not sufficient in vitro to synchronize all cells,Arrest of LS174T cells in the G1 phase,no statistical differences,7.75* days,1,,,,
B1,,,,,2.4,neither additive nor synergistic effects are measurable,cures and tumor growth arrest,18.95** days,growth delay but no cures

# Reference: US20070037825A1, “Enhancing the effect of radioimmunotherapy in the treatment of tumors” (priority 2002, published 2007)
